Where two headings read alike, the source gives them in different places.
Legend:
[1] = target: T1, κ receptors (Cavia porcellus, UniProt P41144); assay: affinity to the κ receptors, [3H]U 69593 binding, guinea-pig cerebellum membrane homogenates; details: 0.7 nM [3H]U 69593, 80 minutes at 22° C.
T1 construct: homogenates of guinea-pig cerebellum membrane; from tissue; host or cells: guinea-pig cerebellum membrane homogenate
Procedure: (§1) The affinity of M6G and of morphine was compared to that of the M6G derivatives according to the invention for the opioid receptors μ (mu) and κ (kappa).
Concentrations of M6G, morphine and the compound according to the invention of 10^−14 to 10^−6 M were used.
(§2) The non-specific binding was determined by means of the addition to the labelled ligands of naloxone 10 μM.
(§3) After incubation, the samples were filtered on glass fibres (GF/B, Packard) previously incubated with 0.3% polyethyleneimine and rinsed several times with 50 mM of cold Tris-HCl using a “96-sample cell harvester” (Unifilter, Packard). The filters were then dried and the radioactivity counted.

[2] = target: T2, μ receptors (Rattus norvegicus, UniProt P33535); assay: affinity to the μ receptors, [3H]DAMGO binding, rat cerebral cortex membrane homogenates
T2 construct: homogenates of rat cerebral cortex membrane; from tissue; host or cells: rat cerebral cortex membrane homogenate
T2 sequence (P33535 whole entry): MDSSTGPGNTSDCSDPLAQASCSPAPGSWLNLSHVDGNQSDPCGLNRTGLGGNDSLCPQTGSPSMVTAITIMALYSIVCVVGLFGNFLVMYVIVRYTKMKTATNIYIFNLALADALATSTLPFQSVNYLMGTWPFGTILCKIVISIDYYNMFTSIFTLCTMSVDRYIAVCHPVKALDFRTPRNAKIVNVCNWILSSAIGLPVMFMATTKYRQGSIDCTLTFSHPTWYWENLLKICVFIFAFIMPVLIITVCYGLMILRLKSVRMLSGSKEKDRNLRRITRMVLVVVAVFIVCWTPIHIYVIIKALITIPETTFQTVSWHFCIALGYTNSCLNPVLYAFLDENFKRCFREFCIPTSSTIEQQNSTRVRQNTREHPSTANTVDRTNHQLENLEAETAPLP
Procedure: as §1, §2, §3

[3] = test system: mouse; assay: tail flick test (analgesic effect); assay type: in vivo; details: mice, intravenous route
[4] = test system: opioid receptors; details: background statement; cited from earlier work
[5] = Affinity to the K receptors (Ki)

T1 sequence (P41144 whole entry): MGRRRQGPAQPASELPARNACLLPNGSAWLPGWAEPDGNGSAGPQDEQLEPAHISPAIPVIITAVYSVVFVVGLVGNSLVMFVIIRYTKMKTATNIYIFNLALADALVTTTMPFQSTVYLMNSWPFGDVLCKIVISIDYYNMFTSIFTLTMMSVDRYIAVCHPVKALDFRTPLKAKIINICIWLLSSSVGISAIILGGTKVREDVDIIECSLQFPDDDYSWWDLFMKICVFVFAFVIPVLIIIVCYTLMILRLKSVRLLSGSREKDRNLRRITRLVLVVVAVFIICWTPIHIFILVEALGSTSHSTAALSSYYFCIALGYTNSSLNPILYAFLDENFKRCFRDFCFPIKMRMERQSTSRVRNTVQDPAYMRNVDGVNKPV

Compound	Ki [1, 5] [nM]	Ki [2] [nM]	duration of the action (analgesic activity) [3]	also measured
COC(=O)C(CS)NC(=O)C1OC(OC2C=CC3C4Cc5ccc(O)c6c5C3(CCN4C)C2O6)C(O)C(O)C1O (stereo not drawn) [Example M6G-Cys-OMe, M6G-Cys-OMe]	14	1.04	–	–
CCOC(=O)C(CS)NC(=O)C1OC(OC2C=CC3C4Cc5ccc(O)c6c5C3(CCN4C)C2O6)C(O)C(O)C1O (stereo not drawn) [Example M6G-Cys-OEt, M6G-Cys-OEt]	11.2	1.17	–	–
CN1CC[C@]23c4c5ccc(O)c4O[C@H]2[C@@H](O)C=C[C@H]3[C@H]1C5 [Morphine]	–	–	approximately 100 minutes	ED50, the dose which induces 50% of the analgesic effect [3]: 2.65 mg eq./kg
M6G-Cya-Cya-PEG20000 [M6G-Cya-Cya-PEG200000]	–	–	–	Ki ([1]; read-out: Affinity to the K receptors (Ki)): 0.72 nM; Ki ([2]; rat cerebral cortex membrane, 1 nM [3H]DAMGO, 60 minutes at 22° C., read-out: Affinity to the μ receptors (Ki)): 0.92 nM
CN1CC[C@]23c4c5ccc(O)c4O[C@H]2[C@@H](O[C@@H]2O[C@H](C(=O)NCCSSCCNC(=O)[C@H]4O[C@@H](O[C@H]6C=CC7[C@H]8Cc9ccc(O)c%10c9[C@@]7(CCN8C)[C@H]6O%10)[C@H](O)[C@@H](O)[C@@H]4O)[C@@H](O)[C@H](O)[C@H]2O)C=CC3[C@H]1C5 (stereo partly drawn) [M6G-Cya-Cya-M6G]	6.22	0.38	360 min	–
CCN(CC)C(=O)C(CS)NC(=O)C1OC(OC2C=CC3C4Cc5ccc(O)c6c5C3(CCN4C)C2O6)C(O)C(O)C1O (stereo not drawn) [Example M6G-Cys-DEA, M6G-Cys-DEA]	1.9	0.36	–	–
CN1CC[C@]23c4c5ccc(O)c4O[C@H]2[C@@H](O[C@@H]2OC(C(=O)NCCS)[C@@H](O)C(O)C2O)C=CC3[C@H]1C5 (stereo partly drawn) [M6G-cysteamide]	4.49	2.35	–	–
CN1CC[C@]23c4c5ccc(O[C@@H]6O[C@H](C(=O)O)[C@@H](O)[C@H](O)[C@H]6O)c4O[C@H]2[C@@H](O)C=C[C@H]3[C@H]1C5 [Example M3G, morphine-3-glucuronide]	–	–	–	affinity for the opioid receptors [4]: no affinity
CN1CCC23c4c5ccc(O)c4OC2C(OC2OC(C(=O)O)C(O)C(O)C2O)C=CC3C1C5 (stereo not drawn) [Example M6G, morphine-6-glucuronide]	224	13.6	approximately 100 minutes	ED50, the dose which induces 50% of the analgesic effect [3]: 0.55 mg eq./kg; affinity for the opioid receptors [4]: high affinity

— US7365055B2, “Derivatives of morphine-6-glucuronide, pharmaceutical compositions containing them, their preparation method and their uses” (BTG International Limited, priority 2003, dated 2008)
